From patent publication US11351229B2, “Combination therapies for treating infantile spasms and other treatment resistant epilepsies” (Baylor College of Medicine, priority 2017, dated 2022)
Like-named read-outs stand apart in the source and are kept apart here.

Tests used:
[1] = tested on: IGF-1R-PI3K-AKT and IGF-1R-Ras-ERK signaling cascades; assay: Western blots of IGF-1R signaling in neocortex (Example 9); assay type: in vivo
Procedure: Briefly, brains were quickly removed from the skull under anesthesia and the cortex dissected free from adhering tissue. It was then snap frozen on dry ice and later homogenized by sonication. Protein concentrations were determined by the BCA assay. Equal quantities of protein (10 μg) from each sample were resolved by polyacrylamide gel electrophoresis. The primary antibodies used were against: pAKT Thr308, pAkt Ser473, pS6 Ser240/244, AKT, S6, IGF-1R. Secondary antibodies were conjugated to horseradish peroxidase and visualization of immunoreactive bands was produced by enhanced chemiluminescence and then exposed to Kodak Biomax film. After digitization, band intensity was quantified with Image J Image software. Blots were also probed with antibodies to GAPDH, which served as a loading control. Band intensity was normalized to control values on the same blot.
The experiments were performed using N=5 for both control and epileptic groups. Animals were 6 weeks old and sacrificed 2 hours after treatment.
Animals (6 weeks old) were treated with 50 mg/kg of PPP or DMSO vehicle. Four hours later, they received 20 mg/kg of (1-3)IGF-1 or vehicle. Two hour later the neocortex was collected.
Vigabatrin (125 mg/kg) was injected 2 and 24 hours before collecting neocortex. Western blots from 2 animals and controls are shown in upper panel (FIG. 25A) for bar graphs n=6. For the combination study, the animals were administered vigabatrin (125/mg/kg), and (1-3)IGF-1 (20 mg/kg) was injected 30 min before collecting cortex in the combination group and the (1-3)IGF-1-only group. Controls received vehicle only. The results are illustrated in FIG. 25B.

[2] = Plasma concentration of vigabatrin alone or co-administered with (1-3)IGF-1; assay type: in vivo, rat; conditions: vigabatrin 125 mg/kg, (1-3)IGF-1 20 mg/kg, rats
Procedure: FIG. 21 illustrates plasma concentration for vigabatrin (administered to rats at 125 mg/kg) when administered alone or in combination with (1-3)IGF-1 (20 mg/kg).

[3] = tested on: hypsarrhythmia (abnormal EEG pattern); assay: EEG analysis for hypsarrhythmia in rats with spasms; assay type: in vivo, rat; conditions: VGB 325 mg/kg/day, 2 weeks; 5 rats with pattern at baseline
[4] = human, in vivo; cited from earlier work
[5] = tested on: epileptic spasms (TTX rat model of infantile spasms); assay type: in vivo
[6] = each drug alone: VGB 250 mg/kg/day or (1-3)IGF-1 10 mg/kg/day, 2 weeks

COc1cc([C@@H]2c3cc4c(cc3[C@H](O)[C@H]3COC(=O)[C@@H]23)OCO4)cc(OC)c1OC [picropodophyllin, (5R,5aR,8aS,9R)-5-hydroxy-9-(3,4,5-trimethoxyphenyl)-5a,6,8a,9-tetrahydro-5H-[2]benzofuro[5,6-f][1,3]benzodioxol-8-one]
effect on (1-3)IGF-1 induced activation of AKT ([1]; 50 mg/kg PPP, 4 hours before 20 mg/kg (1-3)IGF-1, neocortex collected 2 hours later): blocks

NCC(=O)N1CCC[C@H]1C(=O)N[C@@H](CCC(=O)O)C(=O)O [(1-3)IGF-1, Gly-Pro-Glu]
effect of co-administration on vigabatrin pharmacokinetics (plasma concentration) [2]: no discernible effect

C=CC(N)CCC(=O)O (stereo not shown) [vigabatrin, γ-vinyl-GABA]
hypsarrhythmia after treatment [3]: eliminated in all of them
adults with visual field loss [4]: 52%
children with visual field loss [4]: 34%
vigabatrin-treated subjects with visual field loss [4]: 44%
spasm counts (in words) ([5]; VGB 325 mg/kg/day i.p., 2 weeks, vs vehicle controls): dramatic reduction in spasm counts
effect on spasm counts (in words) [5, 6]: modest effects on spasm counts
presence of spasms after treatment, all rats [5, 6]: continued to have spasms
effect on % animals with spasms ([5]; individual administration: vigabatrin 125 mg/kg/day or (1-3)IGF-1 20 mg/kg/day, 2 weeks): no measurable effect
effect on % animals with spasms ([5]; individual administration: vigabatrin 250 mg/kg/day or (1-3)IGF-1 10 mg/kg/day, 2 weeks): no measurable effect
activation of IGF-1R signaling ([1]; vigabatrin 125 mg/kg, 2 and 24 hours before collecting neocortex): does not activate
effect on (1-3)IGF-1-induced IGF-1R signaling ([1]; vigabatrin 125 mg/kg, (1-3)IGF-1 20 mg/kg 30 min before collecting cortex): does not alter

rhIGF-1: rhIGF-1 from Peprotech; the full length growth factor
rats that became free of spasms ([5]; rhIGF-1 1 mg/kg/day, 3 weeks): One of the 5
rats that continued to have spasms after treatment ([5]; rhIGF-1 1 mg/kg/day, 3 weeks): 4 of 5
reduction of spasm counts, on average ([5]; rhIGF-1 1 mg/kg/day, 3 weeks): 40%
